The subject of experiment [1] is hair graying-induced mice (Mitf^mi-vit). As to conditions: mouse, in vivo.
In the next experiment the test system is melan-A melanocytes. It counts as cell-based.

SMILES strings stand for the structures.

The source of these data is patent publication US20120329739A1 (priority 2010, published 2012).

For `O=c1c(-c2ccc(O)cc2)coc2c([C@@H]3O[C@H](CO)[C@@H](O)[C@H](O)[C@H]3O)c(O)ccc12` [puerarin, 8-C-β-D-glucopyranosyl-7-hydroxy-3-(4-hydroxyphenyl)-4H-1-benzopyran-4-one], in experiment [1], the “concentration dependence of the effect on hair melanin content” value is listed as “the effect increases as the concentration of puerarin increases”. Further, in the experiment on melan-A melanocytes, the “concentration dependence of melanin synthesis promoting effect” value was “concentration-dependent” and the “melanin content relative to the negative control group” value is listed as “the melanin content is higher than the negative control group”.
